Data on 6 cell lines can be found in the supplement of paper PMC10307832.

Common to all, as to assay: relative viability (nuclei count vs DMSO), 5 days (fraction); higher = more cells survive
Compound in assay [1]: COc1ccc(-c2ccc3c(N4CCOC[C@@H]4C)nc(N4CCOC[C@@H]4C)nc3n2)cc1CO [AZD8055] + C[C@@H](Oc1cc(-c2cnn(C3CCNCC3)c2)cnc1N)c1c(Cl)ccc(F)c1Cl [Crizotinib] (partner 1 µM)
The essentials: (§1)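 Five library-drug doses in √10 steps were combined with a fixed anchor-drug dose, or a single drug was given alone, by pin tool to lung cancer cell lines in 1536-well plates the day after seeding. Nuclei were stained and counted after 5 days. Relative viability is the nuclei count in treated wells over that in vehicle wells, taken as the median of duplicate plates.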

Compound in assay [2]: COc1ccc(-c2ccc3c(N4CCOC[C@@H]4C)nc(N4CCOC[C@@H]4C)nc3n2)cc1CO [AZD8055] + O=C(CCCCCCC(=O)Nc1ccccc1)NO [Vorinostat] (partner 1 µM)
The method in brief:
as §1

Compound in assay [3]: COc1ccc(-c2ccc3c(N4CCOC[C@@H]4C)nc(N4CCOC[C@@H]4C)nc3n2)cc1CO [AZD8055] + CC(=O)c1c(C)c2cnc(Nc3ccc(N4CCNCC4)cn3)nc2n(C2CCCC2)c1=O [Palbociclib] (partner 0.5 µM)
The essentials: as §1

Compound in assay [4]: COc1ccc(-c2ccc3c(N4CCOC[C@@H]4C)nc(N4CCOC[C@@H]4C)nc3n2)cc1CO [AZD8055] + NC(=O)Nc1cc(-c2cccc(F)c2)sc1C(=O)N[C@H]1CCCNC1 [AZD7762] (partner 0.2 µM)
The method in brief:
as §1

In the case of NCI-H460, the relative viability in assay [1] (first compound 0.01 µM) was 1.05; in assay [1] (first compound 0.03162 µM), 0.654; in assay [1] (first compound 0.1 µM), 0.818; in assay [1] (first compound 0.3162 µM), 0.106; in assay [1] (first compound 1 µM), 0.0777; in assay [2] (first compound 0.01 µM) it was 1.02. Moreover, the relative viability in assay [2] (first compound 0.03162 µM) amounted to 0.629; in assay [2] (first compound 0.1 µM), 0.498; in assay [2] (first compound 0.3162 µM) it was 0.0504; in assay [2] (first compound 1 µM), 0.0551; in assay [3] (first compound 0.01 µM), 0.154; in assay [3] (first compound 0.03162 µM) it was 0.108. Also, the relative viability stood at 0.0839 in assay [3] (first compound 0.1 µM); 0.0295 in assay [3] (first compound 0.3162 µM); 0.0277 in assay [3] (first compound 1 µM); 0.831 in assay [4] (first compound 0.01 µM); 0.51 in assay [4] (first compound 0.03162 µM); 0.607 in assay [4] (first compound 0.1 µM). Also, the relative viability in assay [4] (first compound 0.3162 µM) amounted to 0.137; in assay [4] (first compound 1 µM) it was 0.092.

As for NCI-H647, the relative viability is 1 in assay [1] (first compound 0.01 µM); 0.619 in assay [1] (first compound 0.03162 µM); 0.445 in assay [1] (first compound 0.1 µM); 0.303 in assay [1] (first compound 0.3162 µM); 0.177 in assay [1] (first compound 1 µM); 0.81 in assay [2] (first compound 0.01 µM). Also, the relative viability in assay [2] (first compound 0.03162 µM) amounted to 0.416; in assay [2] (first compound 0.1 µM) it was 0.308; in assay [2] (first compound 0.3162 µM) it was 0.152; in assay [2] (first compound 1 µM), 0.114; in assay [3] (first compound 0.01 µM), 0.348; in assay [3] (first compound 0.03162 µM) it was 0.219. Besides, the relative viability came out at 0.245 in assay [3] (first compound 0.1 µM); 0.102 in assay [3] (first compound 0.3162 µM); 0.0993 in assay [3] (first compound 1 µM); 0.397 in assay [4] (first compound 0.01 µM); 0.338 in assay [4] (first compound 0.03162 µM); 0.391 in assay [4] (first compound 0.1 µM). Further, the relative viability in assay [4] (first compound 0.3162 µM) turned out to be 0.157; in assay [4] (first compound 1 µM), 0.1.

NCI-H650: the relative viability in assay [1] (first compound 0.01 µM) was determined as 0.763; in assay [1] (first compound 0.03162 µM), 0.712; in assay [1] (first compound 0.1 µM), 0.626; in assay [1] (first compound 0.3162 µM) it was 0.395; in assay [1] (first compound 1 µM) it was 0.292; in assay [2] (first compound 0.01 µM) it was 0.496. Further, the relative viability in assay [2] (first compound 0.03162 µM) stood at 0.352; in assay [2] (first compound 0.1 µM) it was 0.478; in assay [2] (first compound 0.3162 µM) it was 0.231; in assay [2] (first compound 1 µM), 0.146; in assay [3] (first compound 0.01 µM) it was 0.371; in assay [3] (first compound 0.03162 µM), 0.307. The relative viability came out at 0.273 in assay [3] (first compound 0.1 µM); 0.196 in assay [3] (first compound 0.3162 µM); 0.165 in assay [3] (first compound 1 µM); 0.84 in assay [4] (first compound 0.01 µM); 0.875 in assay [4] (first compound 0.03162 µM); 1.02 in assay [4] (first compound 0.1 µM). Moreover, the relative viability in assay [4] (first compound 0.3162 µM) is 0.667; in assay [4] (first compound 1 µM) it was 0.323.

As for NCI-H727, the relative viability in assay [1] (first compound 0.01 µM) came to 0.994; in assay [1] (first compound 0.03162 µM), 0.896; in assay [1] (first compound 0.1 µM), 0.536; in assay [1] (first compound 0.3162 µM), 0.292; in assay [1] (first compound 1 µM), 0.279; in assay [2] (first compound 0.01 µM) it was 1.3. In addition, the relative viability in assay [2] (first compound 0.03162 µM) stood at 1.12; in assay [2] (first compound 0.1 µM) it was 1.18; in assay [2] (first compound 0.3162 µM) it was 0.869; in assay [2] (first compound 1 µM), 0.778; in assay [3] (first compound 0.01 µM), 0.621; in assay [3] (first compound 0.03162 µM) it was 0.635. For the same cell line, the relative viability in assay [3] (first compound 0.1 µM) worked out at 0.572; in assay [3] (first compound 0.3162 µM), 0.573; in assay [3] (first compound 1 µM), 0.51; in assay [4] (first compound 0.01 µM), 0.727; in assay [4] (first compound 0.03162 µM), 0.574; in assay [4] (first compound 0.1 µM), 0.528. Besides, the relative viability is 0.434 in assay [4] (first compound 0.3162 µM) and 0.338 in assay [4] (first compound 1 µM).

As to NCI-H838, the relative viability was found to be 0.969 in assay [1] (first compound 0.01 µM); 0.745 in assay [1] (first compound 0.03162 µM); 0.476 in assay [1] (first compound 0.1 µM); 0.293 in assay [1] (first compound 0.3162 µM); 0.307 in assay [1] (first compound 1 µM); 0.695 in assay [2] (first compound 0.01 µM). In addition, the relative viability was found to be 0.577 in assay [2] (first compound 0.03162 µM); 0.447 in assay [2] (first compound 0.1 µM); 0.428 in assay [2] (first compound 0.3162 µM); 0.346 in assay [2] (first compound 1 µM); 0.214 in assay [3] (first compound 0.01 µM); 0.156 in assay [3] (first compound 0.03162 µM). Besides, the relative viability in assay [3] (first compound 0.1 µM) was determined as 0.163; in assay [3] (first compound 0.3162 µM), 0.16; in assay [3] (first compound 1 µM), 0.17; in assay [4] (first compound 0.01 µM) it was 1.06; in assay [4] (first compound 0.03162 µM) it was 0.932; in assay [4] (first compound 0.1 µM), 0.85. Moreover, the relative viability in assay [4] (first compound 0.3162 µM) turned out to be 0.711; in assay [4] (first compound 1 µM), 0.659.

Consider NCI-H1355, for which the relative viability in assay [1] (first compound 0.01 µM) worked out at 1.12; in assay [1] (first compound 0.03162 µM), 0.851; in assay [1] (first compound 0.1 µM), 0.587; in assay [1] (first compound 0.3162 µM) it was 0.231; in assay [1] (first compound 1 µM) it was 0.231; in assay [2] (first compound 0.01 µM), 0.587. The relative viability is 0.541 in assay [2] (first compound 0.03162 µM); 0.414 in assay [2] (first compound 0.1 µM); 0.214 in assay [2] (first compound 0.3162 µM); 0.235 in assay [2] (first compound 1 µM); 0.323 in assay [3] (first compound 0.01 µM); 0.284 in assay [3] (first compound 0.03162 µM). For the same cell line, the relative viability in assay [3] (first compound 0.1 µM) was determined as 0.219; in assay [3] (first compound 0.3162 µM), 0.215; in assay [3] (first compound 1 µM), 0.218; in assay [4] (first compound 0.01 µM) it was 0.856; in assay [4] (first compound 0.03162 µM) it was 0.663; in assay [4] (first compound 0.1 µM) it was 0.594. Further, the figures for the relative viability in assay [4] (first compound 0.3162 µM) and in assay [4] (first compound 1 µM) were 0.288 and 0.248, respectively.
